Test results: patent US20170022258A1, “PEPTIDES FOR USE IN THE TREATMENT OF IL-1 RELATED DISEASES AND CONDITIONS” (C4M PHARMACEUTICALS PTY LTD., priority 2011, published 2017)
Like-named read-outs stand apart in the source and are kept apart here. Non-standard residues stand in square brackets, D forms with d. Residues, ends and D or L forms follow the SMILES beside them.

How the values were obtained:
horses = experiment: Equine case studies (inflammatory conditions); type: in vivo, horse
Procedure: In these case studies, 13 different horses each suffering from different inflammatory conditions were treated with peptide 4, which was administered by injection in a composition containing the peptide dissolved in 5 ml of a solution comprising water, bicarbonate and either benzyl alcohol or methanol.

[1] = system: IL-1α+IFN-γ induced IL-17 production by HT-29 cells; experiment: IL-1α+IFN-γ induced IL-17 production by HT-29 cells; type: cell-based, human; details: 10 ng/ml IL-1α+300 U IFN-γ, peptide 10 ng/ml and 500 ng/ml, stimulated control 13.14±3.92, n=6, p<0.001
Procedure: Human colon epithelial cell lines HT-29 and Caco2 obtained from the European Collection of Animal Cell Cultures (ECACC) were used in cell cultures. Cells were routinely cultured at 37° C. in an atmosphere of 5% CO2 in 80 cm^2 tissue culture flasks in McCoy's and DMEM medium, respectively, supplemented with penicillin (10 u/ml), streptomycin (10 μg/ml), fungizone (0.5 μg/ml), and 10% (v/v) FCS (referred to as complete medium) until confluent.
Confluent monolayers were sub-cultured into 6-well plates for experimental protocols. Cells were grown in 6-well plates until confluent. Twenty-four hours prior to the experiment the confluent monolayers were washed and cultured in FCS-free McCoy's medium. Growth arrested cultures were then treated with fresh FCS-free medium and stimulated with vehicle controls or various doses of IL-1α added alone or in combination with other pro-inflammatory cytokines (TNF-α, IFN-γ) in the presence or absence of the peptide of sequence 4 or IL-1 ra, in a dose and time dependent manner.
Supernatants were collected, centrifuged to remove cellular debris and stored at −70° C. until assayed for extracellular inflammatory mediators. […] Production of soluble mediators was assessed by commercially available ELISA in supernatants, RT-PCR in total RNA extractants and nitric oxide, as described in Kolios, G, et al. (1995). […]

[2] = system: thoroughbred having equine laminitis; experiment: Effect of peptides on equine laminitis (Obel Lameness Grades); type: in vivo, horse
Procedure: Each of the peptides having the sequences 13, 14, 19 and 4 were also tested to determine their effect on equine laminitis. Each peptide was administered intravenously to a thoroughbred having equine laminitis. The peptides were prepared as compositions containing 1 mg of peptide dissolved in 5 ml of a solution comprising water, bicarbonate and either benzyl alcohol or methanol. The effect of the peptides on equine laminitis was judged by the Obel Lameness Grades, which is a system of rating degrees of lameness resulting from laminitis. […] Obel Grade III horses do resist having a foreleg lifted, and are reluctant to walk. Obel Grade IV horses will walk only if forced. The Obel Score for each of the horses was measured before administration of the peptide and 24 hours after injection of the peptide. […] The effect in reducing laminitis which was caused by one single injection of the peptides on laminitis was short-lived. Therefore, the duration of the effect of the peptides in reducing laminitis was further assessed by attending veterinarians.

[3] = system: IL-1 stimulation of IL-8 in human skin fibroblasts; experiment: Inhibition of IL-1 induced IL-8 in human fibroblasts; type: cell-based; details: inhibition of IL-1 stimulation of IL-8 in human skin fibroblasts; average of three measurements and standard error; read-out: Binding (IC50 nM)
[4] = Solubility of peptide under different solvent conditions; type: physicochemical; details: 30 min room temperature
Procedure: 100 mg of each peptide was added to 100 ml total of water plus the solvents, and the solution was gently agitated for 30 min at room temperature.

human subjects = experiment: Testing of peptide 4 in human subjects for treatment of different diseases and conditions; type: in vivo; details: 1 mg; for Duration: Single
Procedure: The peptide having the sequence 4 was tested to determine its effect on a range of different diseases in humans, horses and cows.
The peptides were prepared as compositions containing 1 mg of peptide dissolved in 5 ml of a solution comprising water, bicarbonate and either benzyl alcohol or methanol.

In the case of `CC(=O)N[C@H](CC(C)C)C(=O)N1CCC[C@@H]1C(=O)N[C@H](CC(C)C)C(=O)N[C@H](C)C(=O)N[C@H](Cc1ccc(O)cc1)C(=O)N1CCC[C@@H]1C(=O)N[C@H](CCC(N)=O)C(=O)N[C@H](Cc1c[nH]c2ccccc12)C(=O)N[C@H](Cc1ccc(O)cc1)C(=O)NCC(=O)N1CCC[C@@H]1C(=O)N[C@@H](C(=O)N[C@H](Cc1c[nH]c2ccccc12)C(=O)N[C@H](CCC(=O)O)C(=O)N[C@H](Cc1ccccc1)C(=O)O)[C@H](C)O` [SEQ ID NO. 4, Ac-LPLAYPQWYGPTWEF] (Ac-[dL][dP][dL][dA][dY][dP][dQ][dW][dY]G[dP][dT][dW][dE][dF]-OH; C-terminus assumed), the “Period without inflammation post-administration” value (horses; Case 1) is reported as “observed for 48 hours”, the “Period of minimal pain and no heat post-administration” value (horses; Case 2) is reported as 48 hours post- and the Observations (horses; Case 2: severe pain and heat in near fore hoof, 1 mg bolus intravenous) is reported as “Minimal pain and no”. For the same compound, the Observations (horses; Case 3: years of mild laminitis, 1 mg bolus intravenous every 3rd day for three weeks, during period of treatment) was “Complete relief of all”, the “Time post-administration at which symptoms returned” value (horses; Case 4) was “after 8 days. 10 days” and the Observations (horses; Case 4: near fore fetlock heat and pain, fluid build up in lower deep flexor tendon, 1 mg bolus intravenous, after 8 days) was “Fetlock completely”. For the same compound, the “Period with no pain or palpation” value (horses; Case 5) was “observed for 14 days”, the “Period of complete pain relief and increased flexion” value (horses; Case 6) was “observed for 6 days” and the Observations (horses; Case 6: four years of general knee joint pain, sodium hyaluranate (Synvisc) intra-articularly followed by 0.5 mg peptide 4) was “Complete pain relief”. For the same compound, the Observations (horses; Case 7: three years of general knee pain, sodium hyaluranate (Synvisc) intra-articularly followed by 0.5 mg peptide 4, no follow up treatment required) was “Complete pain relief”, the “Period of pronounced relief of symptoms” value (horses; Case 8) was “over a 72 hour period” and the Observations (horses; Case 9: severe muscle/ligament tear between shoulder and rib cage, 1 mg bolus intravenous, within 24 hours) was “Symptoms reduced”. The Observations (horses; Case 10: chronic joint pain in both knees and fetlocks, sodium hyaluranate (Synvisc) intra-articularly followed by 0.5 mg peptide 4, within 24 hours post-treatment) was “Significant pain relief,”, the Observations (horses; Case 11: mild work-related shin soreness, 1 mg bolus intravenous every 3rd day for a week, after the second injection) was “Significant improvement” and the Observations (horses; Case 12: mild work-related shin soreness, 1 mg bolus intravenous, after 24 hours post-administration) was “Significant pain relief”. The Observations (horses; Case 13: severe pain from inflammation and fluid build-up at 18 month old tendon injury, 1 mg weekly bolus intravenous) was “Complete relief of pain,”, the “IL-1α+IFN-γ-induced IL-17 production” value [1] was 4.97±0.84 pg/ml per 106 cells and the “Change in Obel Score” value ([2]; 1 mg intravenously, before vs 24 hours after injection, most negative = greatest improvement) was −2.9. The “Duration (days) of effect on laminitis” value ([2]; single 1 mg intravenous, averaged, report by veterinarians) was 4 days, the IC50 [3] was 5.9 nM and the solubility at 30 min ([4]; benzyl alcohol (0.1-1%) in water, benzyl alcohol (0.1-1%), 100 mg peptide in 100 ml, read-out: Solubility: Benzyl Alcohol) was over 1000 µg/mL. The solubility at 30 min ([4]; hydrochloric acid (0.1-1%) in water, hydrochloric acid (0.1-1%), 100 mg peptide in 100 ml water plus solvent, read-out: Solubility: Acid) was under 1000 µg/mL, the solubility at 30 min ([4]; sodium bicarbonate (0.1-1%) in water, sodium bicarbonate (0.1-1%), 100 mg peptide in 100 ml, read-out: Solubility: Base) was under 1000 µg/mL and the Effect (human subjects; Cancer Pain from Adrenal Cancer, IM, Repeated) was “Moderate”. The Effect (human subjects; Cancer Pain from Bone Metasta, IM, Repeated) was “Pronounced”, the Effect (human subjects; Cancer Pain from Lung Cancer, SC, Repeated) was “Pronounced” and the Effect (human subjects; Dermatitis, SC) was “Pronounced”. The Duration (human subjects; Dermatitis, SC) was “Single 96 hrs”, the Effect (human subjects; Emphysema, SC) was “Moderate” and the Duration (human subjects; Emphysema, SC) was “Single 48 hrs”. The Effect (human subjects; Lymphodema, IM) was “Pronounced”, the Duration (human subjects; Lymphodema, IM) was “Single 96 hrs” and the Effect (human subjects; Osteoarthritis, Joint) was “Mild”. For the same compound, the Duration (human subjects; Osteoarthritis, Joint) was “Single 48 hrs”, the Duration (human subjects; T1 Diabetes, IM) was “Single 96 hrs” and the Effect (human subjects; Tonsilitis, oral) was “Pronounced”. For the same compound, the Duration (human subjects; Tonsilitis, oral) was “Single 48 hrs”.
